Assay results as given in ChEMBL document CHEMBL1158438, “Discovery and structure-guided drug design of inhibitors of 11beta-hydroxysteroid-dehydrogenase type I based on a spiro-carboxamide scaffold” (Bioorg Med Chem Lett, 2009).

How the values were obtained:
Homo sapiens = species: Homo sapiens; assay: Selectivity ratio, IC50 for human recombinant 11beta-HSD2 to IC50 for human recombinant 11beta-HSD1
[1] = target: T1, 11-beta-hydroxysteroid dehydrogenase 1 (Homo sapiens, UniProt P28845)
Target sequence in this assay (P28845 whole entry, looked up): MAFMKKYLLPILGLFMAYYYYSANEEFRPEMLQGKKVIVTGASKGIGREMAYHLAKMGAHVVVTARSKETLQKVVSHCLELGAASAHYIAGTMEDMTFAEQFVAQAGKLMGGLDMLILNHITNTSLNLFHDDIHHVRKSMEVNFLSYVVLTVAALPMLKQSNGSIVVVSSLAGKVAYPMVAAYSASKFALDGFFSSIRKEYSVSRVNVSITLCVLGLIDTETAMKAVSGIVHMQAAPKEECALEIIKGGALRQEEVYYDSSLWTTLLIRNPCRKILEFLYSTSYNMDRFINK

[2] = target: T1, 11-beta-hydroxysteroid dehydrogenase 1; assay: Inhibition of human recombinant 11beta-HSD1 expressed in Escherichia coli by HTRF assay
Target sequence in this assay (P28845 whole entry): as the sequence (P28845 whole entry, looked up) above

[3] = target: T2, 11-beta-hydroxysteroid dehydrogenase type 2 (Homo sapiens, UniProt P80365); assay: Inhibition of human recombinant 11beta-HSD2 expressed in Escherichia coli by HTRF assay
T2 sequence (P80365 whole entry): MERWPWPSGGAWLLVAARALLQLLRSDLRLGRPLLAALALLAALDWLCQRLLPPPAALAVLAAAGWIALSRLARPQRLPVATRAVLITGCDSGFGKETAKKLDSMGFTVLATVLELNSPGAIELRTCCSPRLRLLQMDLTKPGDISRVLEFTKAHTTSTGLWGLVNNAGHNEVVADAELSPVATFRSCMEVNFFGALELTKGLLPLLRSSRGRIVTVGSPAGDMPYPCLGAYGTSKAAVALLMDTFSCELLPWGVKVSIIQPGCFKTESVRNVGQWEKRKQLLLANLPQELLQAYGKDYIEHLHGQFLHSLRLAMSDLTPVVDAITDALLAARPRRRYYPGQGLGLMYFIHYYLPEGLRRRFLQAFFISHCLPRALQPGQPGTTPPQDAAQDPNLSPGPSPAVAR

[4] = target: 11-beta-hydroxysteroid dehydrogenase 1 (Mus musculus, UniProt P50172); assay: Inhibition of 11beta-HSD1 in mouse liver microsomes fraction; design: species or system Microsome
11-beta-hydroxysteroid dehydrogenase 1 (Mus musculus, UniProt P50172), sequence (P50172 whole entry): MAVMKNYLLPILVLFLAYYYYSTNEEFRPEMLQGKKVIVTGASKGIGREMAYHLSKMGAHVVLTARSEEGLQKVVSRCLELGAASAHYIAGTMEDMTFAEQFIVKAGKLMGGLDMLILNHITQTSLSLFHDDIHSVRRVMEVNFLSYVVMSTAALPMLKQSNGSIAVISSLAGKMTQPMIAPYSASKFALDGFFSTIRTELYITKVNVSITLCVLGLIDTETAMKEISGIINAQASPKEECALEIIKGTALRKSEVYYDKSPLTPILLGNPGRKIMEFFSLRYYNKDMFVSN

[5] = target: T1, 11-beta-hydroxysteroid dehydrogenase 1; assay: Inhibition of human 11beta-HSD1

Row | Ratio IC50 (Homo sapiens) | BEI [1] [kDa-1] | IC50 [2] [nM] | IC50 [3] [nM] | IC50 [4] [nM] | BEI [5] [kDa-1] | IC50 [5] [nM] | Compound
1 | > 16000 | 25.9 | 6 | > 100000 | 3400 |  |  | O=C(N1CCC2(CCCCC2)C1)C1(c2ccc(Cl)cc2)CC1
2 | > 4500 | 20.9 | 22 | > 100000 | 3400 |  |  | O=C(N1CCC2(CCCc3ccccc32)C1)C1(c2ccc(Cl)cc2)CC1 (stereo not given)
3 |  | 21.6 |  | > 100000 | 2600 |  |  | O=C(N1CCC2(CCc3ccccc32)C1)C1(c2ccc(Cl)cc2)CC1 (stereo not given)

Second part, the molecule before the results:

Row | Compound | Ratio IC50 (Homo sapiens) | BEI [1] [kDa-1] | IC50 [2] [nM] | IC50 [3] [nM] | IC50 [4] [nM] | BEI [5] [kDa-1] | IC50 [5] [nM]
4 | O=C1CC2(CCN(C(=O)C3(c4ccccc4)CC3)CC2)Oc2ccc(F)cc21 |  |  |  |  |  | 14.8 | 2500
5 | O=C(N1CCC2(CCCCC2)C1)C1(c2ccccc2)CC1 | > 200000 | 32.7 | 0.5 | > 100000 | 377 |  | 
